Converted amounts (≈) assume the structure as drawn.
Columns and labels:
Assay type in all cases: cell-based
[1] = system: Escherichia coli (carbapenem-resistant clinical isolate; ATCC25922); experiment: MIC by micro broth dilution (CLSI), Escherichia coli; details: Escherichia coli; for MIC50 / MIC90: ATCC25922, Clinical strain; for MIC50: read-out: MIC50; for MIC90: read-out: MIC90; for MIC: Standard strain ATCC25922, read-out: MIC
Outline: (§1)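 CLSI broth microdilution in cation-adjusted Mueller-Hinton broth, compounds in DMSO at 128 to 0.06 mg/L. Inoculum 10^5 CFU/mL from 0.5 McFarland suspensions diluted 100-fold; 35±2 °C, 20 h in air. Clinical isolates plus ATCC/NCTC quality-control strains; interpretation per CLSI 2019 M100.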

[2] = system: Acinetobacter baumannii (carbapenem-resistant clinical isolates; ATCC19606); experiment: MIC by micro broth dilution (CLSI), Acinetobacter baumannii; details: for MIC50 / MIC90: ATCC19606, Clinical strain; for MIC50 / MIC90 / MIC: Acinetobacter baumannii; for MIC50: read-out: MIC50; for MIC90: read-out: MIC90; for MIC: Standard strain ATCC19606, read-out: MIC
Outline: as §1

[3] = system: Staphylococcus aureus (methicillin-resistant and sensitive clinical isolates; ATCC29213); experiment: MIC by micro broth dilution (CLSI), Staphylococcus aureus; details: for MIC50 / MIC90: Clinical strain; for MIC50: read-out: MIC50; for MIC90: read-out: MIC90; for MIC: Standard strain ATCC29213, read-out: MIC
Outline: as §1

[4] = system: Mouse prostate cancer cell line RM1; experiment: Inhibitory activity on cancer cells, CellTiter-Glo viability, RM1; details: 72 hours treatment
Outline: (§2)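 HUVEC seeded at 2000, UM-UC-3 and RM-1 at 3000, LNCaP at 5000 cells/well, each in its own medium, 24 h before dosing. Compounds: 8-point 2.5-fold dilutions from 100 μmol, 72 h at 37 °C, 5% CO2. CellTiter-Glo luminescence; IC50 from growth-inhibition curves.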

[5] = system: Bladder cancer cell line UM-UC-3; experiment: Inhibitory activity on cancer cells, CellTiter-Glo viability, UM-UC-3; details: Homo sapiens, UMUC3, 72 hours treatment
Outline: as §2

[6] = MIC by micro broth dilution (CLSI), Klebsiella pneumoniae; details: for MIC50 / MIC90: Standard strain
Excerpt: The test bacteria were one strain of clinically isolated carbapenem-resistant Escherichia coli, two strains of carbapenem-resistant Acinetobacter baumannii, two strains of methicillin-resistant Staphylococcus aureus, two strains of sensitive Staphylococcus aureus, and 7 strains of Klebsiella pneumoniae. Duplicate strains isolated from the same patient were eliminated. There were also […] quality control strains Escherichia coli ATCC25922, Acinetobacter baumannii ATCC19606, Staphylococcus aureus ATCC29213, Klebsiella pneumoniae ATCC BAA-1705, ATCC 43816, ATCC BAA-2472, ATCC-BAA-1898, ATCC-BAA-1899, NCTC 13440 and ATCC-BAA-2470. There were 24 strains in total.
According to the recommendations of relevant documents of the American Clinical and Laboratory Standards Institute (CLSI), the micro broth dilution method was used to determine the MIC of the compounds of the present invention against clinically isolated strains. • 3.1 Formulation of antibacterial drug: All the compounds of the present invention were dissolved in DMSO. The drug concentration range was 128 mg/L to 0.06 mg/L. • 3.2 Culture medium: The drug susceptibility test used cation adjusted Mueller-Hinton broth (CAMHB). • 3.3 Amount of inoculum: The test bacteria cultured overnight were adjusted to 0.5 McFarland turbidity by the direct colony suspension method, and diluted 100 folds, the final inoculum amount was 10^5 CFU/mL. • 3.4 Culture conditions: The test bacteria were cultured at 35±2° C. for 20 hours in air.
The drug susceptibility test results were interpretated by reference to CLSI 2019 M100 29th edition criteria.
The quality control strains of the drug susceptibility test were Escherichia coli ATCC 25922, Acinetobacter baumannii ATCC 19606, Staphylococcus aureus ATCC 29213, Klebsiella pneumoniae ATCC BAA-1705, ATCC 43816, ATCC BAA-2472, ATCC-BAA-1898, ATCC-BAA-1899, NCTC 13440 and ATCC-BAA-2470.
The results of drug susceptibility test were statistically analyzed by WHONET software (version 5.6).

[7] = system: Endothelial cell line HUVEC; experiment: Inhibitory activity on cells, CellTiter-Glo viability, HUVEC; details: Homo sapiens, 72 hours treatment
Outline: as §2

[8] = system: Prostate cancer cell line LNcaP; experiment: Inhibitory activity on cancer cells, CellTiter-Glo viability, LNcaP; details: Homo sapiens, 72 hours treatment
Outline: as §2

MIC50 [1] [µg/mL] | MIC90 [1] [µg/mL] | MIC [1] [µg/mL] | MIC50 [2] [µg/mL] | MIC90 [2] [µg/mL] | MIC [2] [µg/mL] | MIC50 [3] [µg/mL] | MIC90 [3] [µg/mL] | IC50 [4] [µM] | IC50 [5] [µM] | MIC50 [6] [µg/mL] | MIC90 [6] [µg/mL] | MIC ([6]; Standard strain ATCC43816) [µg/mL] | IC50 [8] [µM] | MIC [3] [µg/mL] | Compound | IC50 [7] [µM] | inhibitory effect against Acinetobacter baumannii compared with the reference drug nitroxoline ([2]; MIC comparison)
32 (≈ 154 µM) | 32 (≈ 154 µM) | – | > 64 | > 64 | – | 64 (≈ 307 µM) | 64 (≈ 307 µM) | – | – | > 64 | > 64 | – | – | – | O=[N+]([O-])c1ccc2ccc(F)nc2c1O [Example 5, 2-Fluoro-7-nitroquinolin-8-ol] | – | –
64 (≈ 313 µM) | 64 (≈ 313 µM) | – | > 64 | > 64 | – | 64 (≈ 313 µM) | 64 (≈ 313 µM) | – | – | > 64 | > 64 | – | – | – | Cc1ccc2ccc([N+](=O)[O-])c(O)c2n1 [Example 6, 2-Methyl-7-nitroquinolin-8-ol] | – | –
4 (≈ 19.6 µM) | 4 (≈ 19.6 µM) | – | 8 (≈ 39.2 µM) | 16 (≈ 78.4 µM) | – | 8 (≈ 39.2 µM) | 8 (≈ 39.2 µM) | 3.18 | 3.77 | 32 (≈ 157 µM) | 32 (≈ 157 µM) | – | 9.3 | – | Cc1cnc2c(O)c([N+](=O)[O-])ccc2c1 [Example 8, 3-Methyl-7-nitroquinolin-8-ol] | 5.7 | –
32 (≈ 157 µM) | 32 (≈ 157 µM) | – | 32 (≈ 157 µM) | 64 (≈ 313 µM) | – | 16 (≈ 78.4 µM) | 16 (≈ 78.4 µM) | – | – | > 64 | > 64 | – | – | – | Cc1ccnc2c(O)c([N+](=O)[O-])ccc12 [Example 10, 4-Methyl-7-nitroquinolin-8-ol] | – | –

Continued, compound first:

Compound | MIC50 [1] [µg/mL] | MIC90 [1] [µg/mL] | MIC [1] [µg/mL] | MIC50 [2] [µg/mL] | MIC90 [2] [µg/mL] | MIC [2] [µg/mL] | MIC50 [3] [µg/mL] | MIC90 [3] [µg/mL] | IC50 [4] [µM] | IC50 [5] [µM] | MIC50 [6] [µg/mL] | MIC90 [6] [µg/mL] | MIC ([6]; Standard strain ATCC43816) [µg/mL] | IC50 [8] [µM] | MIC [3] [µg/mL] | IC50 [7] [µM] | inhibitory effect against Acinetobacter baumannii compared with the reference drug nitroxoline ([2]; MIC comparison)
O=[N+]([O-])c1ccc2cccnc2c1O [Example 1, 7-Nitroquinolin-8-ol] | 16 (≈ 84.1 µM) | 16 (≈ 84.1 µM) | 8 (≈ 42.1 µM) | 4 (≈ 21 µM) | 8 (≈ 42.1 µM) | 16 (≈ 84.1 µM) | 4 (≈ 21 µM) | 4 (≈ 21 µM) | 8.13 | 9.33 | 16 (≈ 84.1 µM) | 64 (≈ 337 µM) | 8 (≈ 42.1 µM) | 10.9 | – | 14.9 | –
Cc1cc2cccnc2c(O)c1[N+](=O)[O-] [Example 2, 6-Methyl-7-nitroquinolin-8-ol] | 16 (≈ 78.4 µM) | 64 (≈ 313 µM) | 8 (≈ 39.2 µM) | 8 (≈ 39.2 µM) | 8 (≈ 39.2 µM) | – | 4 (≈ 19.6 µM) | 4 (≈ 19.6 µM) | – | 3.88 | 32 (≈ 157 µM) | 64 (≈ 313 µM) | – | 5.97 | – | 7.06 | –
O=[N+]([O-])c1cc(I)c2cccnc2c1O [Example 3, 5-Iodo-7-nitroquinolin-8-ol] | – | – | – | > 64 | > 64 | – | – | – | – | – | > 64 | > 64 | – | – | – | – | –
N#Cc1cc([N+](=O)[O-])c(O)c2ncccc12 [Example 9, 8-Hydroxy-7-nitroquinoline-5-carbonitrile] | > 64 | > 64 | – | > 64 | > 64 | – | > 64 | > 64 | – | – | 64 (≈ 297 µM) | > 64 | – | – | – | – | –
CCOC(=O)C1CCN(c2ccnc3c(O)c([N+](=O)[O-])cc(F)c23)CC1 [Example 71, Ethyl 1-(5-fluoro-8-hydroxy-7-nitroquinolin-4-yl)piperidine-4-carboxylate] | > 128 | > 128 | > 128 | > 128 | > 128 | > 128 | 2 (≈ 5.5 µM) | 4 (≈ 11 µM) | 2.51 | 6.8 | – | – | – | 1.53 | 8 (≈ 22 µM) | 2.7 | –
O=[N+]([O-])c1cc(F)c2c(OCC3CC3)ccnc2c1O [Example 72, 4-(Cyclopropylmethoxy)-5-fluoro-7-nitroquinolin-8-ol] | > 128 | > 128 | > 128 | > 128 | > 128 | 64 (≈ 230 µM) | 2 (≈ 7.19 µM) | 4 (≈ 14.4 µM) | 3.03 | 6.28 | – | – | – | 1.89 | 2 (≈ 7.19 µM) | 2.65 | –
Cl.O=[N+]([O-])c1cc(Cl)c2c(C(F)(F)F)ccnc2c1O [Example 73, 5-chloro-7-nitro-4-(trifluoromethyl)-quinolin-8-ol hydrochloride] | 8 | 64 | 8 | 8 | 32 | 2 | 1 | 2 | 2.63 | 5.04 | – | – | – | 2.31 | 1 | 3.45 | comparable to that of the reference drug nitroxoline
O=[N+]([O-])c1ccc2c(Cl)c(C3CC3)cnc2c1O [Example 74, 4-chloro-3-cyclopropyl-7-nitroquinolin-8-ol] | 128 (≈ 484 µM) | 128 (≈ 484 µM) | > 128 | 128 (≈ 484 µM) | 128 (≈ 484 µM) | 4 (≈ 15.1 µM) | 0.25 (≈ 0.945 µM) | 0.5 (≈ 1.89 µM) | 7.64 | 1.57 | – | – | – | 0.53 | 0.5 (≈ 1.89 µM) | 1.28 | –
N#Cc1ccnc2c(O)c([N+](=O)[O-])ccc12 [Example 76, 8-hydroxy-7-nitroquinoline-4-carbonitrile] | 32 (≈ 149 µM) | 64 (≈ 297 µM) | 32 (≈ 149 µM) | 32 (≈ 149 µM) | 64 (≈ 297 µM) | 32 (≈ 149 µM) | 32 (≈ 149 µM) | 32 (≈ 149 µM) | 13.3 | 38.8 | – | – | – | 15.2 | 32 (≈ 149 µM) | 18 | –
